ChEMBL document CHEMBL5236599, “Design, synthesis and biological evaluation of cajanonic acid A analogues as potent PPAR γ antagonists” (Bioorg Med Chem Lett, 2023)

Key:
[1] = Induction of insulin-sensitizing activity in insulin-resistant mouse 3T3-L1 cells assessed as increase in glucose consumption at 0.1 uM relative to control; format: functional
[2] = biological target: T1, Peroxisome proliferator-activated receptor gamma (Homo sapiens) (UniProt P37231); assay: Antagonist activity at PPAR-gamma (unknown origin) transfected in human HEK293 cells assessed as decrease in rosiglitazone-induced receptor transactivation at 10 uM by dual-luciferase reporter gene assay relative to control; format: cell-based
T1 sequence (whole entry): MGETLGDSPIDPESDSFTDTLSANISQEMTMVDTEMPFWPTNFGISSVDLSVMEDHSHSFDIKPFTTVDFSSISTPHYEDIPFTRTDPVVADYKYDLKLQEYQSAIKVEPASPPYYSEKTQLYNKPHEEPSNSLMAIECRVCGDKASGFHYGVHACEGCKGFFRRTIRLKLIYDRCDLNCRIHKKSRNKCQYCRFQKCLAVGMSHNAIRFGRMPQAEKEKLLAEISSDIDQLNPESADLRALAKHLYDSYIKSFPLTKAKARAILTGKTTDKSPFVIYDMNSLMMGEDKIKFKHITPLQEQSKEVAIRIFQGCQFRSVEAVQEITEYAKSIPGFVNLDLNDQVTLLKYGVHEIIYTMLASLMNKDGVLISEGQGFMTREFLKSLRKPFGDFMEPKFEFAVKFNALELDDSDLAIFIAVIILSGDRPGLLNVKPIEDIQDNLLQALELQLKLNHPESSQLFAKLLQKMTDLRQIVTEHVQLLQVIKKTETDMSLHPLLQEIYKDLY

[3] = Induction of insulin-sensitizing activity in insulin-resistant mouse 3T3-L1 cells assessed as glucose consumption at 0.1 uM (reference value: 3.354 +/- 0.342 mM); format: functional
[4] = biological target: T1, Peroxisome proliferator-activated receptor gamma (Homo sapiens); assay: Antagonist activity at PPAR-gamma (unknown origin) transfected in human HEK293 cells assessed as decrease in rosiglitazone-induced receptor transactivation at 1 uM by dual-luciferase reporter gene assay relative to control; format: cell-based
[5] = Induction of insulin-sensitizing activity in insulin-resistant human HepG2 cells assessed as glucose consumption at 0.1 uM (reference value: 5.83 +/-0.101 mM); format: functional
[6] = Induction of insulin-sensitizing activity in insulin-resistant human HepG2 cells assessed as increase in glucose consumption at 0.1 uM relative to control; format: functional
[7] = Cytotoxicity against human HepG2 cells assessed as cell viability at 0.1 uM; format: toxicity, cell-based; conditions: read-out: Activity
[8] = Cytotoxicity against mouse 3T3-L1 cells assessed as cell viability at 0.1 uM; format: toxicity, cell-based; conditions: read-out: Activity
Mus musculus = species on record: Mus musculus; assay: Hypoglycemic activity in db/db mouse assessed as AUC of blood glucose level by oral glucose tolerance test (reference value: 114.8 mmol.min/L); format: functional

| inhibition [2] | inhibition [4] | inhibition ([2]; filed as antagonist) | Compound | Activity [1] | Activity [3] | Activity [5] | Activity [6] | viability at 0.1 µM [7] | viability at 0.1 µM [8] | AUC (Mus musculus) |
| --- | --- | --- | --- | --- | --- | --- | --- | --- | --- | --- |
|  | 24.1% | 57.5% | COc1cc(CC(=O)c2cccc(-c3ccccc3Cl)c2)c(C(=O)O)c(O)c1CC=C(C)C | 59.21% | 5.969 mM | 8.371 mM | 43.55% |  |  |  |
| 16.4% |  |  | COc1ccc(-c2cccc(C(=O)Cc3cc(OC)c(CC=C(C)C)c(O)c3C(=O)O)c2)c(F)c1 | 75.81% | 6.591 mM | 7.992 mM | 37.05% |  |  |  |
|  | 19.3% | 71% | COc1cc(O)c(C(=O)O)c(CC(=O)c2cccc(-c3ccc(Cl)cc3)c2)c1CC=C(C)C | 93.55% | 7.257 mM | 8.091 mM | 38.76% |  |  |  |
|  | 17.7% | 77.7% | COc1cc(CC(=O)c2cccc(C3CC3)c2)c(C(=O)O)c(O)c1CC=C(C)C | 51.66% | 5.686 mM | 6.696 mM | 14.83% |  |  |  |
|  | -0.4% | 84.7% | COc1ccc(-c2cccc(C(=O)Cc3c(CC=C(C)C)c(OC)cc(O)c3C(=O)O)c2)c(F)c1 | 95.64% | 7.335 mM | 6.928 mM | 18.83% |  |  |  |
| 31.7% |  |  | COc1cc(CC(=O)c2cccc(-c3cccnc3)c2)c(C(=O)O)c(O)c1CC=C(C)C | 21.46% | 4.554 mM | 6.93 mM | 18.84% | < 80% |  |  |
|  | 36.9% | 79.5% | COc1ccc(-c2cccc(C(=O)Cc3c(CC=C(C)C)c(OC)cc(O)c3C(=O)O)c2)cc1 | 105.12% | 7.69 mM | 7.252 mM | 24.38% |  |  |  |
|  | -6.1% | 50.9% | COc1cc(CC(=O)c2cccc(-c3cccc(C(F)(F)F)c3)c2)c(C(=O)O)c(O)c1CC=C(C)C | 37.4% | 5.151 mM | 8.649 mM | 48.32% |  |  |  |
|  | 23.9% | 64.5% | COc1cc(O)c(C(=O)O)c(CC(=O)c2cccc(-c3ccc(C)cc3)c2)c1CC=C(C)C | 99.73% | 7.488 mM | 7.492 mM | 28.49% |  |  |  |
| 11.1% | 12.7% |  | COc1cc(CC(=O)c2cccc(-c3ccnc(Cl)c3)c2)c(C(=O)O)c(O)c1CC=C(C)C | 46.74% | 5.501 mM | 7.34 mM | 25.88% |  |  |  |
| 10.3% | 4.6% |  | COc1cc(CC(=O)c2cccc(-c3cncnc3)c2)c(C(=O)O)c(O)c1CC=C(C)C | 9.11% | 4.09 mM | 6.43 mM | 10.28% | < 80% |  |  |
|  |  | 40.5% | COc1cc(CC(=O)c2cccc(-c3ccccc3C(F)(F)F)c2)c(C(=O)O)c(O)c1CC=C(C)C | 15.58% | 4.333 mM | 8.368 mM | 43.51% |  | < 50% |  |
|  | 16% | 66% | COc1cc(O)c(C(=O)O)c(CC(=O)c2cccc(-c3ccc(F)cc3)c2)c1CC=C(C)C | 77.02% | 6.637 mM | 7.564 mM | 29.73% |  |  |  |
| 8.1% |  |  | CCc1ccc(-c2cccc(C(=O)Cc3cc(OC)c(CC=C(C)C)c(O)c3C(=O)O)c2)cc1 | 87.84% | 7.042 mM | 7.93 mM | 36.01% |  |  |  |
| 26.6% |  |  | COc1cc(CC(=O)c2cccc(-c3ccc(Cl)cc3)c2)c(C(=O)O)c(O)c1CC=C(C)C | 91.12% | 7.165 mM | 8.138 mM | 39.56% |  |  |  |
| 20.8% |  |  | COc1ccc(-c2cccc(C(=O)Cc3cc(OC)c(CC=C(C)C)c(O)c3C(=O)O)c2)cc1 | 100.93% | 7.533 mM | 7.438 mM | 27.56% |  |  |  |
|  | 7.7% | 47.7% | COc1cc(CC(=O)c2cccc(-c3ccsc3)c2)c(C(=O)O)c(O)c1CC=C(C)C | 117.26% | 8.145 mM | 8.126 mM | 39.36% |  |  |  |

Second part, the compound before the results:

| Compound | inhibition [2] | inhibition [4] | inhibition ([2]; filed as antagonist) | Activity [1] | Activity [3] | Activity [5] | Activity [6] | viability at 0.1 µM [7] | viability at 0.1 µM [8] | AUC (Mus musculus) |
| --- | --- | --- | --- | --- | --- | --- | --- | --- | --- | --- |
| COc1cc(O)c(C(=O)O)c(CC(=O)c2cccc(-c3cccc(C(F)(F)F)c3)c2)c1CC=C(C)C | 39.6% | -2.4% |  | 71.43% | 6.427 mM | 8.306 mM | 42.45% |  |  |  |
| COc1cc(O)c(C(=O)O)c(CC(=O)c2cccc(-c3ccsc3)c2)c1CC=C(C)C |  | 24.3% | 43.7% | 70.82% | 6.404 mM | 6.047 mM | 3.71% | < 80% |  |  |
| COc1cc(O)c(C(=O)O)c(CC(=O)c2cccc(-c3cccnc3)c2)c1CC=C(C)C |  | -3.8% | 82.5% | -17.14% | 3.107 mM | 5.917 mM | 1.49% | < 80% |  |  |
| COc1cc(CC(=O)c2cccc(-c3ccc(F)cc3)c2)c(C(=O)O)c(O)c1CC=C(C)C |  |  |  | -0.2% | 3.741 mM | 5.195 mM | -10.9% |  | < 50% |  |
| CCc1ccc(CCOc2ccc(CC3SC(=O)NC3=O)cc2)nc1 (stereo not given) [PIOGLITAZONE] |  |  |  |  |  |  |  |  |  | 94.8 mmol·min/L |
| COc1cc(O)c(C(=O)O)c(CC(=O)c2cccc(-c3cncnc3)c2)c1CC=C(C)C |  | 11.5% | 55% | -11.08% | 3.405 mM | 6.171 mM | 5.76% | < 80% |  |  |
| CCc1ccc(-c2cccc(C(=O)Cc3c(CC=C(C)C)c(OC)cc(O)c3C(=O)O)c2)cc1 |  | -8.3% | 60.2% | 77.5% | 6.655 mM | 8.202 mM | 40.66% |  |  |  |
| CN(CCOc1ccc(CC2SC(=O)NC2=O)cc1)c1ccccn1 (stereo not given) [ROSIGLITAZONE] |  |  |  | 44.58% | 5.421 mM | 7.15 mM | 22.74% |  |  |  |
| COc1cc(O)c(C(=O)O)c(CC(=O)c2ccccc2)c1CC=C(C)C | 39% | 12.9% |  |  |  | 6.729 mM | 20.66% |  |  |  |
| COc1cc(CC(=O)c2cccc(-c3ccc(C)cc3)c2)c(C(=O)O)c(O)c1CC=C(C)C |  |  |  | 105.7% | 7.712 mM | 7.886 mM | 35.25% |  |  |  |
| COc1cc(O)c(C(=O)O)c(CC(=O)c2cccc(-c3ccccc3C(F)(F)F)c2)c1CC=C(C)C |  |  | 80.1% | 51.71% | 5.688 mM | 8.251 mM | 41.5% |  |  |  |
| COc1cc(O)c(C(=O)O)c(CC(=O)c2cccc(C3CC3)c2)c1CC=C(C)C |  | 34.6% | 81.2% | 36% | 5.099 mM | 6.002 mM | 2.94% |  |  |  |
| COc1cc(O)c(C(=O)O)c(CC(=O)c2cccc(-c3ccnc(Cl)c3)c2)c1CC=C(C)C |  | 19.9% | 92.3% | 48.82% | 5.579 mM | 6.318 mM | 8.36% | < 80% |  |  |
| O=C(Nc1ccccc1)c1cc([N+](=O)[O-])ccc1Cl |  | 10.9% | 99.1% |  |  |  |  |  |  |  |
